In assay [1] the test system is Colo205 tumor cell lines. Description: Celltiter Glo growth inhibition assay (cellular Method B), Colo205. In kind it is cell-based. As to conditions: Homo sapiens, COLO 205, 72 h, 3 days, read-out: Activity (Method): growth inhibition IC50 class. The method, then: (§1) Human breast tumor cells (BT474) were cultured in RPMI, (Invitrogen, 22400) containing 10% fetal bovine serum (FBS). Human head and neck tumor cells (HN5) were cultured in low glucose DMEM (Invitrogen, 12320) containing 10% FBS. Human colon tumor cells (Colo205) were cultured in DMEM (Invitrogen, 10564) containing 10% FBS. All cell lines were maintained at 37° C. in a humidified 5% CO2, 95% air incubator. Cells were harvested using trypsin/EDTA, counted using a haemocytometer, and plated in 30 microliters of the appropriate media described above, at the following densities, in a half area, black-walled, 96-well tissue culture plate (Corning 3882): BT474 3,000 cells/well, HN5 500 cells/well and Colo205 cells, 3,000 cells/well. The next day, compounds were diluted in DMEM containing […] gentamicin, from 10 mM stock solutions in DMSO. 30 microliters/well of these dilutions were added to the 30 microliters/well of media currently on the cell plates. Medium containing 0.6% DMSO was added to control wells. The final concentration of DMSO in all wells was 0.3%. Cells were incubated at 37° C., 5% CO2 for 3 days. Cell biomass was estimated using Celltiter Glo (Promega G7571). Briefly, plates were removed from the incubator and allowed to equilibrate to rt for 30 minutes. 60 microliters of Celltiter Glo reagent were added to each well of the treated cells and plates were shaken on an orbital plate shaker for 2 min. Plates were incubated without shaking for 30 more min and read in a luminometer with an integration time of 0.5 seconds per well. Percent inhibition of cell growth was calculated relative to vehicle treated control wells. Concentration of compound that inhibits 50% of vehicle control cell growth (IC50) was interpolated using nonlinear regression (Levenberg-Marquardt) and the equation, y=Vmax*(1−(x/(K+x)))+Y2, where “K” was equal to the IC50.
In general terms: In ATP-based viability assays light output follows the ATP content of the culture.

The test system of assay [2] is BT474 and HN5 tumor cell lines. Description: Celltiter Glo growth inhibition assay (cellular Method B). In kind it is cell-based. Conditions: Homo sapiens, BT-474, 72 h, 3 days, read-out: Activity (Method): growth inhibition IC50 class. Here is the method:
as §1

In another assay the target is T1, ErbB2 or EGFR.
T1 construct: enzymes purified from a baculovirus expression system; Reagent production was conducted essentially as described in Brignola, P. S., et al, (2002) J. Biol. Chem. 277(2): 1576-1585
Description: ErbB family substrate phosphorylation enzyme assay (HTRF), Method A or Method B. It counts as biochemical. As to conditions: Method B: enzyme mix pre-incubated with compound 1 hour at 20° C., started with substrate mix. In outline:
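Baculovirus-expressed EGFR or ErbB2 (0.8 or 10 nM in enzyme mix) phosphorylates biotinylated Peptide C with 20 µM ATP and 0.8 µM peptide (substrate-mix levels), MnCl2, pH 7.5. Reaction ran 90 min at 20 °C with EDTA stop and HTRF anti-phosphotyrosine read. Method A: enzyme added last; Method B: 1 h enzyme–compound preincubation.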
(TR-FRET usually uses a lanthanide donor and a delayed reading to cut background.)

Assay [3] has as its system BT474 and HN5 tumor cell lines. Description: Methylene blue growth inhibition assay (cellular Method A). It counts as cell-based, Human. Conditions: Homo sapiens, BT-474, 72 h, 3 days, read-out: Activity (Method): growth inhibition IC50 class. In outline: (§2)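 Growth inhibition measured by methylene blue staining of biomass (OD 620) after 3 days' compound exposure at 37° C, final DMSO 0.3%. Cell lines: BT474 (10,000/well), HN5 (3,000/well) and Colo205, all in DMEM with 10% FBS; IC50 fitted by nonlinear regression against vehicle-treated wells.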

The subject of assay [4] is Colo205 tumor cell lines. Description: Methylene blue growth inhibition assay (cellular Method A), Colo205. In kind it is cell-based, Human. As to conditions: Homo sapiens, COLO 205, 72 h, 3 days, read-out: Activity (Method): growth inhibition IC50 class. In outline:
as §2

As for `O=C(Nc1cccc(-c2nn3ccccc3c2-c2ccnc(Nc3cccc(F)c3)n2)c1)c1c(F)cccc1F` [Example 115, 2,6-Difluoro-N-[3-(3-{2-[(3-fluorophenyl)amino]-4-pyrimidinyl}pyrazolo[1,5-a]pyridin-2-yl)phenyl]benzamide], the half-inhibitory concentration (IC50) (usually the concentration needed to halve the response being measured) was above 1 µM in the assay with Colo205 tumor cell lines [1] and below 0.1 µM in assay [2]. On ErbB2 or EGFR, the “Activity (Method): pIC50 class against ErbB2 or EGFR” value (from here on “Activity (Method): pIC50 class”) is reported as “++ (B) (at least one pIC50 measurement greater than 6 against either ErbB2 or EGFR but no measurement greater than pIC50 of 7)”.
On to `CNCc1cccc(Nc2nccc(-c3c(-c4cccc(NC(=O)c5c(F)cccc5F)c4)nn4ccccc34)n2)c1` [Example 183, 2,6-Difluoro-N-(3-{3-[2-({3-[(methylamino)methyl]phenyl}amino)-4-pyrimidinyl]pyrazolo[1,5-a]pyridin-2-yl}phenyl)benzamide], for which the IC50 was above 1 µM with Colo205 tumor cell lines [1] and below 0.1 µM in assay [2]. Moreover, at ErbB2 or EGFR, the “Activity (Method): pIC50 class” value is “+++ (B) (at least one pIC50 measurement of greater than 7 against either ErbB2 or EGFR)”.
Regarding `CN(C)CCOc1cccc(Nc2nccc(-c3c(-c4cccc(NC(=O)c5c(F)cccc5F)c4)nn4cccc(F)c34)n2)c1` [Example 168, N-[3-(3-{2-[(3-{[2-(Dimethylamino)ethyl]oxy}phenyl)amino]-4-pyrimidinyl}-4-fluoropyrazolo[1,5-a]pyridin-2-yl)phenyl]-2,6-difluorobenzamide], the concentration for half-maximal inhibition (IC50) was above 1 µM in the assay on Colo205 tumor cell lines [1] and below 0.1 µM in assay [2]. Also, the “Activity (Method): pIC50 class” value at ErbB2 or EGFR is “+++ (B) (at least one pIC50 measurement of greater than 7 against either ErbB2 or EGFR)”.
For `CS(=O)(=O)CCNCc1cccc(Nc2nccc(-c3c(-c4cccc(NC(=O)c5cc(F)ccc5F)c4)nn4ccccc34)n2)c1` [Example 187, 2,5-Difluoro-N-{3-[3-(2-{[3-({[2-(methylsulfonyl)ethyl]amino}-methyl)phenyl]amino}-4-pyrimidinyl)pyrazolo[1,5-a]pyridin-2-yl]phenyl}benzamide], the results for the concentration for half-maximal inhibition (IC50) (with Colo205 tumor cell lines [1]; in assay [2]) were 0.1 to 1 µM and below 0.1 µM, respectively. The “Activity (Method): pIC50 class” value on ErbB2 or EGFR is reported as “+++ (B) (at least one pIC50 measurement of greater than 7 against either ErbB2 or EGFR)”.
With `CN1CCN(CCCOc2ccc(Nc3nccc(-c4c(-c5cccc(NC(=O)c6c(F)cccc6F)c5)nn5ccccc45)n3)cc2Cl)CC1` [Example 164, N-[3-(3-{2-[(3-chloro-4-{[3-(4-methyl-1-piperazinyl)propyl]oxy}-phenyl)amino]-4-pyrimidinyl}pyrazolo[1,5-a]pyridin-2-yl)phenyl]-2,6-difluorobenzamide], the values for the IC50 (with Colo205 tumor cell lines [1]; in assay [2]) were above 1 µM and below 0.1 µM, respectively. Further, the “Activity (Method): pIC50 class” value on ErbB2 or EGFR is “+++ (B) (at least one pIC50 measurement of greater than 7 against either ErbB2 or EGFR)”.
In the same order, the values of `O=C(Nc1cccc(-c2nn3cc(C(F)(F)F)ccc3c2-c2nc(Nc3cccc(F)c3)ncc2F)c1)c1c(F)cccc1F` [Example 193, 2,6-Difluoro-N-{3-[3-{5-fluoro-2-[(3-fluorophenyl)amino]-4-pyrimidinyl}-6-(trifluoromethyl)pyrazolo[1,5-a]pyridin-2-yl]phenyl}benzamide] are above 1 µM, above 1 µM and “+ (B) (no pIC50 measurement greater than 6 against either ErbB2 or EGFR)”.
In the same order, the values of `CN(C)CCOc1cccc(Nc2nccc(-c3c(-c4cccc(NC(=O)c5c(F)cccc5F)c4)nn4cc(F)ccc34)n2)c1` [Example 171, N-[3-(3-{2-[(3-{[2-(Dimethylamino)ethyl]oxy}phenyl)amino]-4-pyrimidinyl}-6-fluoropyrazolo[1,5-a]pyridin-2-yl)phenyl]-2,6-difluorobenzamide] are above 1 µM, below 0.1 µM and “+++ (B) (at least one pIC50 measurement of greater than 7 against either ErbB2 or EGFR)”.
As for `O=C(Nc1cccc(-c2nn3ccccc3c2-c2nc(Nc3cccc(F)c3)ncc2F)c1)c1c(F)cccc1F` [Example 202, 2,6-difluoro-N-[3-(3-{5-fluoro-2-[(3-fluorophenyl)amino]-4-pyrimidinyl}pyrazolo[1,5-a]pyridin-2-yl)phenyl]benzamide], the IC50 is above 1 µM in the assay with Colo205 tumor cell lines [1] and 0.1 to 1 µM in assay [2]. Besides, at ErbB2 or EGFR, the “Activity (Method): pIC50 class” value is “++ (B) (at least one pIC50 measurement greater than 6 against either ErbB2 or EGFR but no measurement greater than pIC50 of 7)”.
In the same order, the values of `CN1CCc2ccc(Nc3nccc(-c4c(-c5cccc(NC(=O)c6c(F)cccc6F)c5)nn5cc(F)ccc45)n3)cc2C1` [Example 173, 2,6-Difluoro-N-[3-(6-fluoro-3-{2-[(2-methyl-1,2,3,4-tetrahydro-7-isoquinolinyl)amino]-4-pyrimidinyl}pyrazolo[1,5-a]pyridin-2-yl)phenyl]benzamide] are above 1 µM, below 0.1 µM and “+++ (B) (at least one pIC50 measurement of greater than 7 against either ErbB2 or EGFR)”.
For `CS(=O)(=O)Cc1cccc(Nc2nccc(-c3c(-c4cccc(NC(=O)c5c(F)cccc5F)c4)nn4ccccc34)n2)c1` [Example 135, 2,6-Difluoro-N-(3-{3-[2-({3-[(methylsulfonyl)methyl]phenyl}amino)-4-pyrimidinyl]pyrazolo[1,5-a]pyridin-2-yl}phenyl)benzamide], the half-maximal inhibitory concentration (IC50) in the assay with Colo205 tumor cell lines [1] was above 1 µM; in assay [2] it was below 0.1 µM. Moreover, at ErbB2 or EGFR, the “Activity (Method): pIC50 class” value is “+++ (B) (at least one pIC50 measurement of greater than 7 against either ErbB2 or EGFR)”.
For `COc1ccc(Nc2nccc(-c3c(-c4cccc(NC(=O)c5c(F)cccc5F)c4)nn4ccccc34)n2)cc1OCCCN(C)C.O=CO` [Example 165, N-{3-[3-(2-{[3-{[3-(Dimethylamino)propyl]oxy}-4-(methyloxy)-phenyl]amino}-4-pyrimidinyl)pyrazolo[1,5-a]pyridin-2-yl]phenyl}-2,6-difluorobenzamide formic acid salt], the half-inhibitory concentration (IC50) is above 1 µM with Colo205 tumor cell lines [1] and below 0.1 µM in assay [2]. The “Activity (Method): pIC50 class” value on ErbB2 or EGFR is listed as “+++ (B) (at least one pIC50 measurement of greater than 7 against either ErbB2 or EGFR)”.
For the compound `O=C(Nc1cccc(-c2nn3cc(C(F)(F)F)ccc3c2-c2ccnc(Nc3cccc(F)c3)n2)c1)c1c(F)cccc1F` [Example 191, 2,6-Difluoro-N-{3-[3-{2-[(3-fluorophenyl)amino]-4-pyrimidinyl}-6-(trifluoromethyl)pyrazolo[1,5-a]pyridin-2-yl]phenyl}benzamide], the IC50 (in the assay with Colo205 tumor cell lines [1]; in assay [2]) was above 1 µM in each case. The “Activity (Method): pIC50 class” value on ErbB2 or EGFR is “++ (B) (at least one pIC50 measurement greater than 6 against either ErbB2 or EGFR but no measurement greater than pIC50 of 7)”.
Take `Cc1ncoc1-c1cccc(Nc2nccc(-c3c(-c4cccc(NC(=O)c5c(F)cccc5F)c4)nn4ccccc34)n2)c1` [Example 178, 2,6-Difluoro-N-{3-[3-(2-{[3-(4-methyl-1,3-oxazol-5-yl)phenyl]amino}-4-pyrimidinyl)pyrazolo[1,5-a]pyridin-2-yl]phenyl}benzamide]: the concentration for half-maximal inhibition (IC50) in assay [3] was below 0.1 µM; in the assay with Colo205 tumor cell lines [1] it was 0.1 to 1 µM. Moreover, the “Activity (Method): pIC50 class” value on ErbB2 or EGFR is recorded as “+++ (B) (at least one pIC50 measurement of greater than 7 against either ErbB2 or EGFR)”.
Turning to `CN(C)Cc1ccc(Nc2nccc(-c3c(-c4cccc(NC(=O)c5c(F)cccc5F)c4)nn4ccccc34)n2)cc1` [Example 108, N-(3-{3-[2-({4-[(Dimethylamino)methyl]phenyl}-amino)-4-pyrimidinyl]pyrazolo[1,5-a]pyridin-2-yl}phenyl)-2,6-difluorobenzamide], the IC50 (in assay [3]; in the assay with Colo205 tumor cell lines [4]) was below 0.1 µM each time. The “Activity (Method): pIC50 class” value at ErbB2 or EGFR is reported as “+++ (B) (at least one pIC50 measurement of greater than 7 against either ErbB2 or EGFR)”.

Source of the values: US7812022B2 (GlaxoSmithKline LLC, priority 2004, dated 2010).
